Test results: patent publication US10195156B2, “Compounds and compositions for intracellular delivery of agents” (ModernaTX, Inc., priority 2015, dated 2019)

Legend:
[1] = tested on: modified luciferase expression; assay: Expression of Luc in different organs (liver, lung, spleen, femur) 6 hours after intravenous administration; type: in vivo; conditions: Table 3, mice, i.v., 0.5 mpk
Protocol: The efficacy of the nanoparticle compositions presented in Tables 1, 1a, 17-1, 19-1, 20-1 and 21-1 was further evaluated by measuring the expression of modified luciferase in the liver, lung, spleen, and femur upon administration of a given composition. Formulations were administered intravenously to mice (n=3) at a dosage of 0.5 mpk and bioluminescence measured after 6 hours. The standard MC3 formulation and a PBS control were also tested.

[2] = Particle size and polydispersity index of nanoparticle compositions (Zetasizer Nano ZS); type: physicochemical; conditions: for Size (nm) / PDI: Table 1
Summary of the method: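 Particle size and PDI were measured on a Zetasizer Nano ZS with the nanoparticle compositions dispersed in 1×PBS.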

IL-6 = assay: Cytokine production induced by sample formulations: IL-6; type: in vivo; conditions: Table 4; mice, i.v., 0.5 mpk, 6 hours; in pg/mL (unit assumed)
Summary of the method: (§1)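 Mice received nanoparticle formulations intravenously at 0.5 mpk, with standard MC3 formulation and PBS as controls. Cytokine concentrations were measured 6 hours after dosing.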

[3] = pKa of nanoparticle compositions; type: physicochemical; conditions: Table 1
IP-10 = assay: Cytokine production induced by sample formulations: IP-10; type: in vivo; conditions: Table 4; mice, i.v., 0.5 mpk, 6 hours; in pg/mL (unit assumed)
Summary of the method: as §1

[4] = tested on: luciferase (Luc) mRNA expression; assay: Expression of Luc induced by sample formulations, whole-body bioluminescence after intravenous administration; type: in vivo; conditions: mice, i.v., 0.5 mg/kg; for Total Flux 3 hours / Total Flux 6 hours / Total Flux 24 hours: Table 2
Summary of the method: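 Mice (n=6) dosed intravenously with Luc mRNA nanoparticle formulations at 0.5 mg/kg. Whole-body bioluminescence measured at 3, 6 and 24 h. Standard MC3 formulation and PBS control run alongside.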

[5] = Encapsulation efficiency of RNA (QUANT-IT RIBOGREEN RNA assay); type: physicochemical; conditions: Table 1
Summary of the method: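 Nanoparticle samples diluted to ~5 μg/mL RNA in TE buffer (pH 7.5), incubated with or without 2% Triton X-100 solution at 37 °C for 15 min, then RiboGreen added. Fluorescence read at ~480/520 nm, blank-subtracted; free RNA % = intact over Triton-disrupted signal.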

[6] = * formulated with lipid:DSPC:Chol:PEG-DMG 50:10:38.5:1.5
[7] = * lipid:DSPC:Chol:PEG-DMG 50:10:38.5:1.5
[8] = rows without footnote mark (lipid:DOPE:cholesterol:PEG-DMG 40:20:38.5:1.5, Luc mRNA; MC3 standard formulation)

Structure (SMILES) | Total Flux Liver [1] | Total Flux Lung [1] | Total Flux Spleen [1] | Size (nm) [2, 6] | PDI [2, 7] | IL-6 (IL-6) | pKa [3, 7] | IP-10 (IP-10) | Total Flux 3 hours ([4]; 3 hours) | Total Flux 6 hours [4] | Total Flux 24 hours [4] | EE (%) [5, 7] | PDI ([2]; rows without footnote mark) | Size (nm) [2, 8] | pKa ([3]; rows without footnote mark) | EE (%) ([5]; rows without footnote mark) | Total Flux Femur [1] | total flux after 3 hours, rank within the named table (in words) ([4]; 3 hours) | particle size, rank within the named table (in words) ([2]; comparison amongst compositions)
CCCCCCCCCCCCCCN(CCCCCCCCCCCCCC)CCN1CCN(CCN(CCCCCCCCCCCC)CCN(CCCCCCCCCCCC)CCCCCCCCCCCC)CC1 [Compound 26, N^1-(2-(4-(2-(Ditetradecylamino)ethyl)piperazin-1-yl)ethyl)-N^1,N^2,N^2-tridodecylethane-1,2-diamine] | 2.35E+06 | 3.49E+04 | 2.30E+05 | 74.2 nm | 0.112 | 17 | 6.19 | 175 | 1.65E+07 | 1.04E+07 | 2.75E+06 | 84.9% |  |  |  |  |  |  | 
CCCCC/C=C\C/C=C\CCCCCCCCN(CCCCCCCCCCCC)CCN1CCN(CCN(CCCCCCCCCCCC)CCN(CCCCCCCCCCCC)CCCCCCCCCCCC)CC1 [Compound 27, N^1,N^1,N^2-Tridodecyl-N^2-(2-(4-(2-(dodecyl((9Z,12Z)-octadeca-9,12-dien-1-yl)amino)ethyl)piperazin-1-yl)ethyl)ethane-1,2-diamine] | 7.84E+08 | 3.56E+06 | 3.34E+06 |  |  | 42 |  | 2564 | 4.56E+09 | 4.70E+09 | 1.36E+08 |  | 0.211 | 86.4 nm | 6.14 | 97.9% |  |  | 
CCCCCCCC/C=C\CCCCCCCCN(CCCCCCCC/C=C\CCCCCCCC)CCN1CCN(CCN(CCCCCCCCCCCC)CCN(CCCCCCCCCCCC)CCCCCCCCCCCC)CC1 [Compound 28, N^1-(2-(4-(2-(Di((Z)-octadec-9-en-1-yl)amino)ethyl)piperazin-1-yl)ethyl)-N^1,N^2,N^2-tridodecylethane-1,2-diamine] | 8.10E+08 | 5.73E+06 | 5.67E+06 |  |  | 73 |  | 5364 | 6.18E+09 | 7.28E+09 | 4.02E+08 |  | 0.099 | 87.4 nm | 6.04 | 80.2% | 1.16E+06 |  | 
CCCCC/C=C\C/C=C\CCCCCCCCN(CCCCCCCC/C=C\C/C=C\CCCCC)CCN1CCN(CCN(CCCCCCCCCCCC)CCN(CCCCCCCCCCCC)CCCCCCCCCCCC)CC1 [Compound 29, N^1-(2-(4-(2-(Di((9Z,12Z)-octadeca-9,12-dien-1-yl)amino)ethyl)piperazin-1-yl)ethyl)-N^1,N^2,N^2-tridodecylethane-1,2-diamine] | 2.27E+07 | 4.70E+05 | 2.97E+06 |  |  | 108 |  | 3454 | 1.22E+08 | 2.51E+08 | 2.69E+07 |  | 0.060 | 105.3 nm | 5.97 | 48.8% |  |  | 
CCCCCCCCCCCCCCN(CCCCCCCCCCCCCC)CCN(CCCCCCCCCCCCCC)CCN1CCN(CCN(CCCCCCCCC)CCCCCCCCC)CC1 [Compound 30, N^1-(2-(4-(2-(Dinonylamino)ethyl)piperazin-1-yl)ethyl)-N^1,N^2,N^2-tritetradecylethane-1,2-diamine] | 2.42E+09 | 1.61E+07 | 7.18E+06 |  |  | 300 |  | 4235 | 2.87E+10 | 1.59E+10 | 1.95E+09 |  | 0.110 | 95.0 nm | 6.09 | 74.3% | 2.22E+06 | highest flux after 3 hours | 
CCCCCCCCCCCCCCN(CCCCCCCCCCCCCC)CCN(CCCCCCCCCCCCCC)CCN1CCN(CCN(CCCCCCCCCCCC)CCCCCCCCCCCC)CC1 [Compound 31, N^1-(2-(4-(2-(Didodecylamino)ethyl)piperazin-1-yl)ethyl)-N^1,N^2,N^2-tritetradecylethane-1,2-diamine] | 1.54E+09 | 9.81E+06 | 1.28E+07 |  |  | 188 |  | 2513 | 1.43E+10 | 1.42E+10 | 3.07E+08 |  | 0.130 | 87.9 nm | 6.31 | 77.5% | 9.89E+05 |  | 
CCCCCCCCCCCCCCN(CCCCCCCCCCCCCC)CCN(CCCCCCCCCCCCCC)CCN1CCN(CCN(CCCCCCCCCCCCCC)CCCCCCCCCCCCCC)CC1 [Compound 32, N^1-(2-(4-(2-(Ditetradecylamino)ethyl)piperazin-1-yl)ethyl)-N^1,N^2,N^2-tritetradecylethane-1,2-diamine] | 8.36E+07 | 6.75E+05 | 9.38E+05 |  |  | 174 |  | 727 | 6.85E+08 | 5.88E+08 | 4.37E+07 |  | 0.160 | 79.3 nm | 6.28 | 83.6% | 1.02E+05 |  | 
CCCCCCCC/C=C\CCCCCCCCN(CCCCCCCC/C=C\CCCCCCCC)CCN(CCCCCCCC/C=C\CCCCCCCC)CCN1CCN(CCN(CCCCCCCCCCCC)CCCCCCCCCCCC)CC1 [Compound 33, N^1-(2-(4-(2-(Didodecylamino)ethyl)piperazin-1-yl)ethyl)-N^1,N^2,N^2-tri((Z)-octadec-9-en-1-yl)ethane-1,2-diamine] | 6.15E+08 | 2.84E+06 | 4.82E+06 |  |  | 37 |  | 1577 | 1.64E+09 | 4.71E+09 | 1.54E+08 |  | 0.138 | 79.7 nm | 6.06 | 98.1% | 1.18E+06 |  | 
CCCCC/C=C\C/C=C\CCCCCCCCN(CCCCCCCC/C=C\C/C=C\CCCCC)CCN(CCCCCCCC/C=C\C/C=C\CCCCC)CCN1CCN(CCN(CCCCCCCCCCCC)CCCCCCCCCCCC)CC1 [Compound 34, N^1-(2-(4-(2-(Didodecylamino)ethyl)piperazin-1-yl)ethyl)-N^1,N^2,N^2-tri((9Z,12Z)-octadeca-9,12-dien-1-yl)ethane-1,2-diamine] | 2.79E+06 | 5.63E+04 | 1.22E+06 | 66.0 nm | 0.077 | 28 | 5.74 | 159 | 7.77E+06 | 1.88E+07 | 2.19E+06 | 98.1% |  |  |  |  |  |  | smallest particles
